Test results published in PMC4047093, “Structural Insights into SraP-Mediated Staphylococcus aureus Adhesion to Host Cells” (PLoS Pathogens, 2014).

Tests used:
L-lectin module of SraP = L-lectin module of SraP (Staphylococcus aureus, UniProt Q2FUW1); assay: SPR (Biacore […]), steady state, […] Langmuir fit; type: binding; settings: 10 mM HEPES pH 7.5, 150 mM NaCl, 0.005% Tween 20, 25 °C; protein immobilised on CM5 chip; Neu5Ac 0.12-10 mM
[1] = molecular target: the molecule itself; assay: SEC; Superdex 75 column, CDHL-1&2 against protein markers of 67, 44, 25, 17 and 13.7 kDa

Chain of L-lectin module of SraP (Q2FUW1 245-491): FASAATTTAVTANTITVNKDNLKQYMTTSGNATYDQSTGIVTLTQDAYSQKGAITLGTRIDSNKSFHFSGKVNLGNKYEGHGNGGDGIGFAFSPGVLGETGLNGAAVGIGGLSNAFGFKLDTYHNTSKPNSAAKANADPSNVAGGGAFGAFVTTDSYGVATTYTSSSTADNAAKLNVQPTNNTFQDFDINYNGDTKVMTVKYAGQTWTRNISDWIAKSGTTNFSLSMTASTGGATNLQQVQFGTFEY

Molecule	Kd (L-lectin module of SraP) [µM]	stoichiometry N [1]
CC(=O)N[C@H]1[C@H]([C@H](O)[C@H](O)CO)OC(O)(C(=O)O)C[C@@H]1O (some centres unmarked) [N-acetylneuraminic acid]	540	–
CDHL-1&2 (tandem cadherin-like modules of SraP, Ala576–Asn751) (domain or fragment, modules CDHL-1 and CDHL-2, residues Ala576–Asn751; Lacks the two Ca-2 coordinating residues Asp573 and Lys575; also called CDHL-1&2 modules; tandem CDHL modules; source: E. coli BL21, purified (Ni-NTA, Superdex 200 or Superdex 75)) APTVTVGNQTIEVGKTMNPIVLTTTDNGTGTVTNTVTGLPSGLSYDSATNSIIGTPTKIGQSTVTVVSTDQANNKSTTTFTINVVDTTAPTVTPIGDQSSEVYSPISPIKIATQDNSGNAVTNTVTGLPSGLTFDSTNNTISGTPTNIGTSTISIVSTDASGNKTTTTFKYEVTRN	–	2
